# Experimental data from PMC2952696 (Bioorganic & medicinal chemistry letters, 2010).
# What was measured:
# Assay type in all cases: biochemical
# human nNOS = human nNOS (Homo sapiens, UniProt P29475); assay: NOS inhibition assay, human nNOS; conditions: human nNOS vs rat nNOS
# rat nNOS = rat nNOS (Rattus norvegicus, UniProt P29476); assay: NOS inhibition assay, rat nNOS; conditions: for selectivity n/e: rat nNOS over bovine eNOS; for selectivity n/i: rat nNOS over murine iNOS
# bovine eNOS = bovine eNOS (Bos taurus, UniProt P29473); assay: NOS inhibition assay, bovine eNOS; conditions: 2a vs 1
drop of selectivity (Ki-human/Ki-rat) compared to 1 (human nNOS),drop of selectivity for rat nNOS over bovine eNOS compared to 1 (rat nNOS; 2a vs 1),"impaired potency for rat nNOS compared to 1 (rat nNOS; 2a vs 1, removal of 4-methyl group)",selectivity n/e (rat nNOS),selectivity n/i (rat nNOS),difference in eNOS potency compared to 1 (bovine eNOS),lower potency for rat nNOS compared to 2a (rat nNOS; 2b vs 2a),Structure (SMILES)
1.2 fold,2.3 fold,7 fold,"1,200",200,3 fold,–,Nc1cccc(C[C@@H]2CNC[C@@H]2OCCNCCc2cccc(F)c2)n1 [Compound 2a]
–,–,–,270,60,–,4 fold,Nc1cccc(C[C@H]2CNC[C@H]2OCCNCCc2cccc(F)c2)n1 [Compound 2b]
1.6 fold,–,–,530,200,–,–,N=C1CCCC(C[C@@H]2CNC[C@@H]2OCCNCCc2cccc(F)c2)N1 (stereo partly drawn) [Compound 3]
